Data from PubChem BioAssay AID1259407 (Chemical Carcinogenesis Research Information System (CCRIS), 2018).
Active and inactive are the calls of the source. How the calls were made is not given here.

Test system: CCRIS mutagenicity, Ames/micronucleus/aberration tests
Test: CCRIS mutagenicity studies
[1] = Test System: AMES SALMONELLA TYPHIMURIUM, Strain/Indicator: TA98, Metabolic Activation: NONE, Method: PREINCUBATION
[2] = Test System: AMES SALMONELLA TYPHIMURIUM, Strain/Indicator: TA98, Metabolic Activation: NONE, Method: STANDARD PLATE
[3] = Test System: AMES SALMONELLA TYPHIMURIUM, Strain/Indicator: TA98, Metabolic Activation: RAT, LIVER, S-9, AROCLOR 1254, Method: STANDARD PLATE
[4] = Test System: AMES SALMONELLA TYPHIMURIUM, Strain/Indicator: TA100, Metabolic Activation: NONE, Method: PREINCUBATION
[5] = Test System: AMES SALMONELLA TYPHIMURIUM, Strain/Indicator: TA100, Metabolic Activation: NONE, Method: STANDARD PLATE
[6] = Test System: AMES SALMONELLA TYPHIMURIUM, Strain/Indicator: TA100, Metabolic Activation: RAT, LIVER, S-9, AROCLOR 1254, Method: STANDARD PLATE
[7] = Test System: AMES SALMONELLA TYPHIMURIUM, Strain/Indicator: TA1535, Metabolic Activation: NONE, Method: PREINCUBATION
[8] = Test System: AMES SALMONELLA TYPHIMURIUM, Strain/Indicator: TA1535, Metabolic Activation: RAT, LIVER, S-9, AROCLOR 1254, Method: STANDARD PLATE

SMILES: c1ccc2c(c1)ccc1ccccc12
- mutagenic call (Test System: AMES SALMONELLA TYPHIMURIUM, Strain/Indicator: TA97, Metabolic Activation: HAMSTER, LIVER, S-9, AROCLOR 1254 (10%), Method: PREINCUBATION): inactive; negative
- mutagenic call (Test System: AMES SALMONELLA TYPHIMURIUM, Strain/Indicator: TA97, Metabolic Activation: NONE, Method: PREINCUBATION): inactive; negative
- mutagenic call (Test System: AMES SALMONELLA TYPHIMURIUM, Strain/Indicator: TA97, Metabolic Activation: NONE, Method: STANDARD PLATE): inactive; negative
- mutagenic call (Test System: AMES SALMONELLA TYPHIMURIUM, Strain/Indicator: TA97, Metabolic Activation: RAT, LIVER, S-9, AROCLOR 1254 (10%), Method: PREINCUBATION): inactive; negative
- mutagenic call (Test System: AMES SALMONELLA TYPHIMURIUM, Strain/Indicator: TA97, Metabolic Activation: RAT, LIVER, S-9, PCB, Method: STANDARD PLATE): active; positive
- mutagenic call (Test System: AMES SALMONELLA TYPHIMURIUM, Strain/Indicator: TA98, Metabolic Activation: HAMSTER, LIVER, S-9, AROCLOR 1254 (10%), Method: PREINCUBATION): inactive; negative
- mutagenic call [1]: inactive; negative
- mutagenic call [2]: inactive; negative
- mutagenic call (Test System: AMES SALMONELLA TYPHIMURIUM, Strain/Indicator: TA98, Metabolic Activation: RAT, LIVER, S-9, AROCLOR 1254 (10%), Method: PREINCUBATION): inactive; negative
- mutagenic call [3]: inactive; negative
- mutagenic call (Test System: AMES SALMONELLA TYPHIMURIUM, Strain/Indicator: TA98, Metabolic Activation: RAT, LIVER, S-9, PCB, Method: STANDARD PLATE): inactive; negative
- mutagenic call (Test System: AMES SALMONELLA TYPHIMURIUM, Strain/Indicator: TA100, Metabolic Activation: HAMSTER, LIVER, S-9, AROCLOR 1254 (5 OR 30%), Method: PREINCUBATION): inactive; negative
- mutagenic call (Test System: AMES SALMONELLA TYPHIMURIUM, Strain/Indicator: TA100, Metabolic Activation: HAMSTER, LIVER, S-9, AROCLOR 1254 (10%), Method: PREINCUBATION): inactive; negative
- mutagenic call [4]: inactive; negative
- mutagenic call [5]: inactive; negative
- mutagenic call (Test System: AMES SALMONELLA TYPHIMURIUM, Strain/Indicator: TA100, Metabolic Activation: RAT, LIVER, S-9, AROCLOR 1254 (5%), Method: PREINCUBATION): inactive; negative
- mutagenic call (Test System: AMES SALMONELLA TYPHIMURIUM, Strain/Indicator: TA100, Metabolic Activation: RAT, LIVER, S-9, AROCLOR 1254 (10%), Method: PREINCUBATION): inactive; negative
- mutagenic call [6]: active; positive
- mutagenic call (Test System: AMES SALMONELLA TYPHIMURIUM, Strain/Indicator: TA100, Metabolic Activation: RAT, LIVER, S-9, PCB, Method: STANDARD PLATE): inactive; negative
- mutagenic call (Test System: AMES SALMONELLA TYPHIMURIUM, Strain/Indicator: TA1535, Metabolic Activation: HAMSTER, LIVER, S-9, AROCLOR 1254 (10%), Method: PREINCUBATION): inactive; negative
- mutagenic call [7]: inactive; negative
- mutagenic call (Test System: AMES SALMONELLA TYPHIMURIUM, Strain/Indicator: TA1535, Metabolic Activation: RAT, LIVER, S-9, AROCLOR 1254 (10%), Method: PREINCUBATION): inactive; negative
- mutagenic call [8]: active; positive
- mutagenic call (Test System: E. COLI, Strain/Indicator: WP2 UVRA, Metabolic Activation: HAMSTER, LIVER, S-9, AROCLOR 1254, Method: STANDARD PLATE): inactive; negative
- mutagenic call (Test System: E. COLI, Strain/Indicator: WP2 UVRA, Metabolic Activation: HAMSTER, LIVER, S-9, Method: STANDARD PLATE): inactive; negative
- mutagenic call (Test System: E. COLI, Strain/Indicator: WP2 UVRA, Metabolic Activation: MOUSE, LIVER, S-9, AROCLOR 1254, Method: STANDARD PLATE): inactive; negative
- mutagenic call (Test System: E. COLI, Strain/Indicator: WP2 UVRA, Metabolic Activation: MOUSE, LIVER, S-9, Method: STANDARD PLATE): inactive; negative
- mutagenic call (Test System: E. COLI, Strain/Indicator: WP2 UVRA, Metabolic Activation: NONE, Method: STANDARD PLATE): inactive; negative
- mutagenic call (Test System: E. COLI, Strain/Indicator: WP2 UVRA, Metabolic Activation: RAT, LIVER, S-9, AROCLOR 1254, Method: STANDARD PLATE): inactive; negative
- mutagenic call (Test System: E. COLI, Strain/Indicator: WP2 UVRA, Metabolic Activation: RAT, LIVER, S-9, Method: STANDARD PLATE): inactive; negative
- mutagenic call (Test System: UDS RAT HEPATOCYTES, Strain/Indicator: BROMODEOXYURIDINE INCORP, Metabolic Activation: NONE, Method: FLOW CYTOMETRIC ANALYSIS): inactive; negative

SMILES: Clc1cccc(Cl)c1Cl
- mutagenic call (Test System: AMES SALMONELLA TYPHIMURIUM, Strain/Indicator: TA98, Metabolic Activation: HAMSTER, LIVER, S-9, AROCLOR 1254, Method: PREINCUBATION): inactive; negative
- mutagenic call [1]: inactive; negative
- mutagenic call (Test System: AMES SALMONELLA TYPHIMURIUM, Strain/Indicator: TA98, Metabolic Activation: RAT, LIVER, S-9, AROCLOR 1254, Method: PREINCUBATION): inactive; negative
- mutagenic call (Test System: AMES SALMONELLA TYPHIMURIUM, Strain/Indicator: TA100, Metabolic Activation: HAMSTER, LIVER, S-9, AROCLOR 1254, Method: PREINCUBATION): inactive; negative
- mutagenic call [4]: inactive; negative
- mutagenic call (Test System: AMES SALMONELLA TYPHIMURIUM, Strain/Indicator: TA100, Metabolic Activation: RAT, LIVER, S-9, AROCLOR 1254, Method: PREINCUBATION): inactive; negative
- mutagenic call (Test System: AMES SALMONELLA TYPHIMURIUM, Strain/Indicator: TA1535, Metabolic Activation: HAMSTER, LIVER, S-9, AROCLOR 1254, Method: PREINCUBATION): inactive; negative
- mutagenic call [7]: inactive; negative
- mutagenic call (Test System: AMES SALMONELLA TYPHIMURIUM, Strain/Indicator: TA1535, Metabolic Activation: RAT, LIVER, S-9, AROCLOR 1254, Method: PREINCUBATION): inactive; negative
- mutagenic call (Test System: AMES SALMONELLA TYPHIMURIUM, Strain/Indicator: TA1537, Metabolic Activation: HAMSTER, LIVER, S-9, AROCLOR 1254, Method: PREINCUBATION): inactive; negative
- mutagenic call (Test System: AMES SALMONELLA TYPHIMURIUM, Strain/Indicator: TA1537, Metabolic Activation: NONE, Method: PREINCUBATION): inactive; negative
- mutagenic call (Test System: AMES SALMONELLA TYPHIMURIUM, Strain/Indicator: TA1537, Metabolic Activation: RAT, LIVER, S-9, AROCLOR 1254, Method: PREINCUBATION): inactive; negative

SMILES: Cc1ccc2nc3c(ccc4ccccc43)cc2c1
- mutagenic call (Test System: AMES SALMONELLA TYPHIMURIUM, Strain/Indicator: TA97A, Metabolic Activation: NONE, Method: PREINCUBATION): inactive; negative
- mutagenic call [1]: inactive; negative
- mutagenic call [4]: active; positive
- mutagenic call (Test System: AMES SALMONELLA TYPHIMURIUM, Strain/Indicator: TA102, Metabolic Activation: NONE, Method: PREINCUBATION): active; positive

SMILES: Nc1ccc(O)c2c1C(=O)c1ccccc1C2=O
- mutagenic call [3]: inactive; negative
- mutagenic call [5]: inactive; negative
- mutagenic call [6]: inactive; negative
- mutagenic call (Test System: AMES SALMONELLA TYPHIMURIUM, Strain/Indicator: TA1535, Metabolic Activation: NONE, Method: STANDARD PLATE): inactive; negative
- mutagenic call [8]: inactive; negative
- mutagenic call (Test System: AMES SALMONELLA TYPHIMURIUM, Strain/Indicator: TA1537, Metabolic Activation: NONE, Method: STANDARD PLATE): active; positive
- mutagenic call (Test System: AMES SALMONELLA TYPHIMURIUM, Strain/Indicator: TA1537, Metabolic Activation: RAT, LIVER, S-9, AROCLOR 1254, Method: STANDARD PLATE): active; positive
- mutagenic call (Test System: AMES SALMONELLA TYPHIMURIUM, Strain/Indicator: TA1538, Metabolic Activation: RAT, LIVER, S-9, AROCLOR 1254, Method: STANDARD PLATE): inactive; negative

SMILES: Oc1ccc(/C=C/c2cc(O)cc(O)c2)cc1
- mutagenic call (End Point: CHROMOSOMAL ABERRATIONS, Test System: CHINESE HAMSTER LUNG CELLS, Metabolic Activation: NONE): active; positive (structural and ploidy changes)
- mutagenic call (Test System: Ames Salmonella typhimurium, Strain/Indicator: TA102, Metabolic Activation: None, Method: Preincubation): inactive; negative
- mutagenic call (Test System: Ames Salmonella typhimurium, Strain/Indicator: TA102, Metabolic Activation: Rat, Liver, S-9, Aroclor 1254 in 0.154 M KCl, Method: Preincubation): inactive; negative

SMILES: O=C(/C=C/c1ccc(-c2ccccc2)cc1)c1ccccc1
- mutagenic call [2]: inactive; negative
- mutagenic call [3]: inactive; negative
- mutagenic call [5]: inactive; negative
- mutagenic call [6]: inactive; negative
